pIC50: −log10 of the molar value. Bridge positions count the residues as written; N and C are the ends. Square brackets hold non-standard residues; d marks the D form. Peptide text beside a SMILES is read from it. * marks the point of attachment. Bip = N[C@@H](Cc1ccc(-c2ccccc2)cc1)C(=O)O; NH(CH2)14COOH = O=C(O)CCCCCCCCCCCCCCN*; Phe(3-Me) = Cc1cccc(C[C@H](N)C(=O)O)c1; NH(CH2)12COOH = O=C(O)CCCCCCCCCCCCN*; Val(3-OH) = CC(C)(O)[C@H](N)C(=O)O; hPhe = N[C@@H](CCc1ccccc1)C(=O)O; 4Pal = N[C@@H](Cc1ccncc1)C(=O)O; Cha = N[C@@H](CC1CCCCC1)C(=O)O; hSer = N[C@@H](CCO)C(=O)O; Carboxymethyl = O=C(O)C*; Orn = NCCC[C@H](N)C(=O)O; Aun = NCCCCCCCCCCC(=O)O; Dab = NCC[C@H](N)C(=O)O; Nva = CCC[C@H](N)C(=O)O; Dap = NC[C@H](N)C(=O)O
Target: T1, PD-1/PD-L1 interaction (PE-labeled human PD-L1-Ig binding to Jurkat cell line over-expressing human PD-1) (Homo sapiens, UniProt Q15116)
T1 construct: expressed in transfected cells; host or cells: Jurkat
Assay: Jurkat-PD-1 Cell Binding High-Content Screening Assay (CBA)
Type: cell-based
Conditions: Jurkat cell line over-expressing human PD-1; PE-labeled PD-L1-Ig 20 nM final; read-out: Jurkat hPD1-PDL1 IC50
Method in brief: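 Read-out is high-content imaging of cell-bound phycoerythrin-tagged PD-L1-Ig on fixed, Hoechst-counterstained Jurkat cells that over-express human PD-1. Compound exposure lasts 2 h at 37° C before the labeled ligand (20 nM final) is added for a further hour.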

T1 sequence (Q15116 25-288): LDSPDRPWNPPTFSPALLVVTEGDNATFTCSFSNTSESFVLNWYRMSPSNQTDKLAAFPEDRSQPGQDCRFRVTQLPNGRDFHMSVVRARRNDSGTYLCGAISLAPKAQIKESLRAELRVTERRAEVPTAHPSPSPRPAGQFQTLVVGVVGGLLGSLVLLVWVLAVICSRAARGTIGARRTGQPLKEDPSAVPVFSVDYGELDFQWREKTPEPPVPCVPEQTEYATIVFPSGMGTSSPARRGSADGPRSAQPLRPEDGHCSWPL

Structure (SMILES)	pIC50
Cc1cccc(C[C@@H]2NC(=O)[C@H](CC(=O)O)NC(=O)[C@H](Cc3ccc(OCC(=O)O)cc3)NC(=O)[C@H](CN)NC(=O)CSC[C@@H](C(=O)N[C@@H](CCN)C(=O)NCCCCCCCCCCCCCCC(=O)O)NC(=O)[C@H](CO)NC(=O)[C@H](C(C)(C)O)NC(=O)[C@H](CC3CCCCC3)NC(=O)[C@H](CCN)NC(=O)[C@@H](CC(C)C)NC(=O)[C@H](CCCN)NC(=O)[C@H](Cc3ccc(OCC(=O)O)cc3)NC(=O)[C@H](Cc3ccc(-c4ccccc4)cc3)NC(=O)[C@H](Cc3ccc(OCC(=O)O)cc3)NC2=O)c1 [Compound 2223] ({CH2CO}-[Dap]Y(Carboxymethyl)D[Phe(3-Me)]Y(Carboxymethyl)[Bip]Y(Carboxymethyl)[Orn][dL][Dab][Cha][Val(3-OH)]SC[Dab]-{NH(CH2)14COOH}; thioether N-14)	6.55
Cc1cccc(C[C@@H]2NC(=O)[C@H](CC(=O)O)NC(=O)[C@H](Cc3ccc(OCC(=O)O)cc3)NC(=O)[C@H](Cc3ccncc3)NC(=O)CSC[C@@H](C(=O)N[C@@H](CCN)C(=O)NCCCCCCCCCCCCC(=O)O)NC(=O)[C@H](CO)NC(=O)[C@H](C(C)(C)O)NC(=O)[C@H](CC3CCCCC3)NC(=O)[C@H](CCN)NC(=O)[C@@H](CC(C)C)NC(=O)[C@H](CCCN)NC(=O)[C@H](Cc3ccc(OCC(=O)O)cc3)NC(=O)[C@H](Cc3ccc(-c4ccccc4)cc3)NC(=O)[C@H](Cc3ccc(OCC(=O)O)cc3)NC2=O)c1 [Compound 2224] ({CH2CO}-[4Pal]Y(Carboxymethyl)D[Phe(3-Me)]Y(Carboxymethyl)[Bip]Y(Carboxymethyl)[Orn][dL][Dab][Cha][Val(3-OH)]SC[Dab]-{NH(CH2)12COOH}; thioether N-14)	7.58
CCC[C@@H]1NC(=O)CSC[C@@H](C(=O)N[C@@H](CCN)C(=O)NCCCCCCCCCCCCC(=O)O)NC(=O)[C@H](CO)NC(=O)[C@H](C(C)(C)O)NC(=O)[C@H](CC2CCCCC2)NC(=O)[C@H](CCN)NC(=O)[C@@H](CC(C)C)NC(=O)[C@H](CCCN)NC(=O)[C@H](Cc2ccc(OCC(=O)O)cc2)NC(=O)[C@H](Cc2ccc(-c3ccccc3)cc2)NC(=O)[C@H](Cc2ccc(OCC(=O)O)cc2)NC(=O)[C@H](Cc2cccc(C)c2)NC(=O)[C@H](CC(=O)O)NC(=O)[C@H](Cc2ccc(OCC(=O)O)cc2)NC1=O [Compound 2226] ({CH2CO}-[Nva]Y(Carboxymethyl)D[Phe(3-Me)]Y(Carboxymethyl)[Bip]Y(Carboxymethyl)[Orn][dL][Dab][Cha][Val(3-OH)]SC[Dab]-{NH(CH2)12COOH}; thioether N-14)	7.56
Cc1cccc(C[C@@H]2NC(=O)[C@H](CC(=O)O)NC(=O)[C@H](Cc3ccc(OCC(=O)O)cc3)NC(=O)[C@H](Cc3ccncc3)NC(=O)CSC[C@@H](C(=O)N[C@@H](CCN)C(=O)NCCCCCCCCCCCCCCC(=O)O)NC(=O)[C@H](CO)NC(=O)[C@H](C(C)(C)O)NC(=O)[C@H](CC3CCCCC3)NC(=O)[C@H](CCN)NC(=O)[C@@H](CC(C)C)NC(=O)[C@H](CCCN)NC(=O)[C@H](Cc3ccc(OCC(=O)O)cc3)NC(=O)[C@H](Cc3ccc(-c4ccccc4)cc3)NC(=O)[C@H](Cc3ccc(OCC(=O)O)cc3)NC2=O)c1 [Compound 2227] ({CH2CO}-[4Pal]Y(Carboxymethyl)D[Phe(3-Me)]Y(Carboxymethyl)[Bip]Y(Carboxymethyl)[Orn][dL][Dab][Cha][Val(3-OH)]SC[Dab]-{NH(CH2)14COOH}; thioether N-14)	6.69
Cc1cccc(C[C@@H]2NC(=O)[C@H](CC(=O)O)NC(=O)[C@H](Cc3ccc(OCC(=O)O)cc3)NC(=O)[C@H](CCCNC(=N)N)NC(=O)CSC[C@@H](C(=O)N[C@@H](CCN)C(=O)NCCCCCCCCCCCCCCC(=O)O)NC(=O)[C@H](CO)NC(=O)[C@H](C(C)(C)O)NC(=O)[C@H](CC3CCCCC3)NC(=O)[C@H](CCN)NC(=O)[C@@H](CC(C)C)NC(=O)[C@H](CCCN)NC(=O)[C@H](Cc3ccc(OCC(=O)O)cc3)NC(=O)[C@H](Cc3ccc(-c4ccccc4)cc3)NC(=O)[C@H](Cc3ccc(OCC(=O)O)cc3)NC2=O)c1 [Compound 2228] ({CH2CO}-RY(Carboxymethyl)D[Phe(3-Me)]Y(Carboxymethyl)[Bip]Y(Carboxymethyl)[Orn][dL][Dab][Cha][Val(3-OH)]SC[Dab]-{NH(CH2)14COOH}; thioether N-14)	7.11
COc1ccc(C[C@@H]2NC(=O)[C@H](Cc3cccc(C)c3)NC(=O)[C@H](CC(=O)O)NC(=O)[C@H](Cc3ccc(OCC(=O)O)cc3)NC(=O)[C@H](Cc3ccncc3)NC(=O)CSC[C@@H](C(=O)N[C@@H](CCN)C(=O)NCCCCCCCCCCC(=O)O)NC(=O)[C@H](CO)NC(=O)[C@H](C(C)(C)O)NC(=O)[C@H](CC3CCCCC3)NC(=O)[C@H](CCN)NC(=O)[C@@H](CC(C)C)NC(=O)[C@H](CCCN)NC(=O)[C@H](Cc3ccc(OCC(=O)O)cc3)NC(=O)[C@H](Cc3ccc(-c4ccccc4)cc3)NC2=O)cc1 [Compound 2229] ({CH2CO}-[4Pal]Y(Carboxymethyl)D[Phe(3-Me)]Y(Me)[Bip]Y(Carboxymethyl)[Orn][dL][Dab][Cha][Val(3-OH)]SC[Dab][Aun]-OH; thioether N-14)	9.22
Cc1cccc(C[C@@H]2NC(=O)[C@H](CC(=O)O)NC(=O)[C@H](Cc3ccc(OCC(=O)O)cc3)NC(=O)[C@H](CCO)NC(=O)CSC[C@@H](C(=O)N[C@@H](CCN)C(=O)NCCCCCCCCCCC(=O)O)NC(=O)[C@H](CO)NC(=O)[C@H](C(C)(C)O)NC(=O)[C@H](CC3CCCCC3)NC(=O)[C@H](CCN)NC(=O)[C@@H](CC(C)C)NC(=O)[C@H](CCCN)NC(=O)[C@H](Cc3ccc(OCC(=O)O)cc3)NC(=O)[C@H](Cc3ccc(-c4ccccc4)cc3)NC(=O)[C@H](Cc3ccc(OCC(=O)O)cc3)NC2=O)c1 [Compound 2230] ({CH2CO}-[hSer]Y(Carboxymethyl)D[Phe(3-Me)]Y(Carboxymethyl)[Bip]Y(Carboxymethyl)[Orn][dL][Dab][Cha][Val(3-OH)]SC[Dab][Aun]-OH; thioether N-14)	8.66
Cc1cccc(C[C@@H]2NC(=O)[C@H](CC(=O)O)NC(=O)[C@H](Cc3ccc(OCC(=O)O)cc3)NC(=O)[C@H](CCc3ccccc3)NC(=O)CSC[C@@H](C(=O)N[C@@H](CCN)C(=O)NCCCCCCCCCCC(=O)O)NC(=O)[C@H](CO)NC(=O)[C@H](C(C)(C)O)NC(=O)[C@H](CC3CCCCC3)NC(=O)[C@H](CCN)NC(=O)[C@@H](CC(C)C)NC(=O)[C@H](CCCN)NC(=O)[C@H](Cc3ccc(OCC(=O)O)cc3)NC(=O)[C@H](Cc3ccc(-c4ccccc4)cc3)NC(=O)[C@H](Cc3ccc(OCC(=O)O)cc3)NC2=O)c1 [Compound 2231] ({CH2CO}-[hPhe]Y(Carboxymethyl)D[Phe(3-Me)]Y(Carboxymethyl)[Bip]Y(Carboxymethyl)[Orn][dL][Dab][Cha][Val(3-OH)]SC[Dab][Aun]-OH; thioether N-14)	7.82
Cc1cccc(C[C@@H]2NC(=O)[C@H](CC(=O)O)NC(=O)[C@H](Cc3ccc(OCC(=O)O)cc3)NC(=O)[C@@H](CCCNC(=N)N)NC(=O)CSC[C@@H](C(=O)N[C@@H](CCN)C(=O)NCCCCCCCCCCC(=O)O)NC(=O)[C@H](CO)NC(=O)[C@H](C(C)(C)O)NC(=O)[C@H](CC3CCCCC3)NC(=O)[C@H](CCN)NC(=O)[C@@H](CC(C)C)NC(=O)[C@H](CCCN)NC(=O)[C@H](Cc3ccc(OCC(=O)O)cc3)NC(=O)[C@H](Cc3ccc(-c4ccccc4)cc3)NC(=O)[C@H](Cc3ccc(OCC(=O)O)cc3)NC2=O)c1 [Compound 2232] ({CH2CO}-[dR]Y(Carboxymethyl)D[Phe(3-Me)]Y(Carboxymethyl)[Bip]Y(Carboxymethyl)[Orn][dL][Dab][Cha][Val(3-OH)]SC[Dab][Aun]-OH; thioether N-14)	6.62
